Experiment [1] concerns the target Bcl-2 (Homo sapiens, UniProt P10415). Description: SPR binding to immobilized Bcl-2. Conditions: SPR, 25 °C, 2-site fit, highest affinity site. Here is the method:
(§1) FastStep experiments were performed with a SensiQ Pioneer apparatus. Bcl-2 immobilization on COOH5 sensorchips was carried out essentially as previously reported, [40]. All the experiments were carried out at 25 °C in degassed HEPES 20 mM, pH 7.4, NaCl 150 mM, 0.005% surfactant P20 + 2% DMSO (HBSP2%D). […] Each sensorgram is the average of at least three experiments. The decrease in Response Units (RU) after 165 s indicates analyte dissociation from the immobilized Bcl-2 upon HSBP2%D buffer injection. Control SPR experiments were carried out measuring sensorgrams on Bcl-xL and Mcl-1 (ligands) immobilized on COOH5 sensorchips as previously reported at 25 °C in degassed HBSP2%D buffer. […] Each sensorgram is the average of at least three experiments. The decrease in RU after 180 s indicates analyte dissociation from the immobilized ligands upon HSBP2%D buffer injection. Kinetic evaluation of the sensorgrams was carried out using the Qdat 4.0 program; best fittings were obtained with 2 sites and indicated in red (reported KD values refer to dissociation constants of the highest affinity site).
Figure 2 SPR analysis of the interaction between putative inhibitors of Bcl-2 anti-apoptotic members and Bcl-2 protein. Bcl-2 was immobilized via amine coupling onto a COOH5 sensorchip; Bcl-2 family inhibitors (analytes) were injected at a flow rate = 100 μL/min, at the following concentrations. 0-30 s: 0.625 μM; 31-60 s: 1.25 μM; 61-90 s: 2.5 μM; 91-120 s: 5 μM; 121-150 s: 10 μM; 151-165 s: 20 μM. The increase in Response Units (RU) relative to baseline indicates complex formation between the immobilized Bcl-2 ligand and the analytes upon Bcl-2 family inhibitors injection. The decrease in RU after 165 s indicates analyte dissociation from the immobilized Bcl-2 upon buffer injection. Full fittings with 2 sites are indicated in red. The fitted KD values are the following.

Experiment [2] concerns the target Mcl-1 (Homo sapiens, UniProt Q07820). The experiment in a line: SPR binding to immobilized Mcl-1. Conditions: analyte 0.3-30 µM. The method, then:
as §1
Figure 3 SPR analysis of the interaction between IS20 or IS21 and Bcl-xL and Mcl-1 proteins. SPR experiments were carried out measuring sensorgrams on Bcl-xL and Mcl-1 (ligands) immobilized on COOH5 sensorchips at 25 °C in degassed HBSP2%D buffer. IS20 and IS21 (analytes) were injected at a flow rate = 30 μL/min, at the following concentrations: 0.3 μM (only for Mcl-1 experiments); 1 μM; 3 μM; 10 μM; 30 μM. Each sensorgram is the average of at least three experiments. The decrease in RU (Response Units) after 180 s indicates analyte dissociation from the immobilized ligands upon HSBP2%D buffer injection. The fitted KD values for Bcl-xL are the following. IS20: 0.42 ± 0.09 μM and IS21: 0.51 ± 0.17 μM. The fitted KD values for Mcl-1are the following. IS20: 3.9 ± 0.30 μM and IS21: 1.16 ± 0.14 μM;

Experiment [3] deals with M14 cells. The experiment in a line: Western blot of PARP1 cleavage, M14. Format: cell-based, Human. Conditions: 72 h. Here is the method: (§2) Western blot analyses of total protein extracts were performed as previously described. Immunodetection was performed using antibodies directed to poly (ADP-ribose) polymerase (PARP; BD Biosciences San Diego, CA, USA), LC3B (Cell Signaling Technology, Danvers, MA), HSP72/73 (Calbiochem, EMD Biosciences, La Jolla, CA), Bcl-2 (SC-509, Santa Cruz Biotechnology Inc, Dallas, TX, USA), Bcl-xL (SC-271121, Santa Cruz Biotechnology Inc), Mcl-1 (SC-12756, Santa Cruz Biotechnology Inc) α-tubulin (Santa Cruz Biotechnology Inc) actin (Sigma-Aldrich, St. Louis, Missouri, USA). Anti-rabbit or anti-mouse immunoglobulin G-horseradish peroxidase-conjugated antibodies (Amersham Biosciences, Freiburg, Germany) were used as secondary antibody. Images were acquired by Image Lab Software (Bio-Rad, Hercules, CA, USA), using a ChemiDoc System instrument (Bio-Rad). The densitometric evaluation was performed using Image J software and normalized with relative controls.
Figure 5 Analysis of apoptosis induction by IS20 and IS21 in leukemia, melanoma and NSCLC cells. […] (A-F) Reported images are representative of two independent experiments with similar results. HSP72/73 or α-Tubulin are shown as loading and transferring control. (G) Flow cytometric quantification of cells in the subG1 peak of cell cycle distribution by propidium iodide staining in HL60 cell line treated with IS20 or IS21 (20 μM for 24 h) and in M14, H1299 and MDA-MB-231 cell lines treated with IS20 or IS21 (20 μM for 72 h). Data are reported as mean ± SD of three independent experiments. p-values were calculated between control (Ctrl) and treated cells, * p < 0.05. (H) Flow cytometric quantification of cells in the subG1 peak by propidium iodide staining in M14 and H1299 cell lines treated with IS20 or IS21 (20 μM, 72 h) in presence or absence of the pan caspase inhibitor z-VAD (50 μM). p-values were calculated between treated control (Ctrl) cells, # p < 0.01, ## p < 0.001 or between cells treated with IS20 or IS21 alone or in combination with z-VAD, * p < 0.05, ** p < 0.005. (G-H) Data are reported as mean of two (H) or three (G) experiments ± SD.

The subject of experiment [4] is M14 cells. The experiment in a line: Western blot of LC3B-I/LC3B-II (autophagy), M14. It is filed as cell-based, Human. Conditions: 72 h. The method, then: as §2
Figure 6 Analysis of autophagosome accumulation in M14 and H1299 cells after treatment with IS20 or IS21. Western blot analysis of LC3B-I and LC3B-II protein levels in (A) M14, and (B) H1299 cell lines untreated (Ctrl) or treated with IS20 or IS21 for 72 h at the indicated concentrations. (C) Western blot analysis of LC3B-I and LC3B-II levels in HL60 and U937 cell lines untreated (Ctrl) or treated with IS20 or IS21 (20 μM for 24 h). (A-C) Reported images are representative of two independent experiments with similar results. HSP72/73, Actin or α-Tubulin are shown as loading and transferring control. […] Ratio of LC3B-II on LC3B-I levels, after normalization on HSP72/73, Actin or α-Tubulin, is quantified by densitometric analysis. (D) (Upper panels) Representative images and (lower panels) relative quantification of fluorescence microscopic analysis of LC3B puncta positive cells in M14 EGFP-LC3B and H1299 EGFP-LC3B transfected cells, treated with IS20 or IS21 (20 µM for 72h). […] Cells with more than 10 puncta were considered autophagy-positive. p-values were calculated between untreated (Ctrl) and treated cells, * p < 0.05.

Sequence of Bcl-2 (P10415 whole entry): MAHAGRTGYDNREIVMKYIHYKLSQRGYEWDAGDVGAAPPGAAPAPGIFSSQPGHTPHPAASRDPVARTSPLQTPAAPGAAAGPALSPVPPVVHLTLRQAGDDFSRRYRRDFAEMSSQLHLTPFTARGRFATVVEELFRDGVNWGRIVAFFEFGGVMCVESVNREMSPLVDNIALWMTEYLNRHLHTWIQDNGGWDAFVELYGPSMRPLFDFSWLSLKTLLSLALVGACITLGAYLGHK
Sequence of Mcl-1 (Q07820 whole entry): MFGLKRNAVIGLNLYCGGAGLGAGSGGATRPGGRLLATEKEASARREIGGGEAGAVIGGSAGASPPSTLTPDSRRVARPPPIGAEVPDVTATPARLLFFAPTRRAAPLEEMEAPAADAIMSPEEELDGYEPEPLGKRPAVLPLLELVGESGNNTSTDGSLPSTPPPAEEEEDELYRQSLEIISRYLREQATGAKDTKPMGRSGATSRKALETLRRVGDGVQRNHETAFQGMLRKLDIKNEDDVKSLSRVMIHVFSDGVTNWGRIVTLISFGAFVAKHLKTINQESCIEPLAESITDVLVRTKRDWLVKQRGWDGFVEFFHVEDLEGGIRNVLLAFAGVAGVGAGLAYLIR

With `CC(C)(C)c1ccc(C=NN2CCN(Cc3ccccc3Cl)CC2)cc1` [IS1], binding in experiment [1] was put at a Kd of 480 ± 110 nM.
On the same count and under the same terms, with `O=C(CN1CCN(Cc2ccccc2Cl)CC1)N/N=C/c1ccccc1C(F)(F)F` [IS27] the figure was 4600 ± 900 nM; with `COc1ccc(-c2cc(C(F)F)nc(N3CCN(Cc4ccccc4C)CC3)n2)cc1OC` [ISP], 770 ± 140 nM.
Still for that read-out and setting: with `CC(C)(C)c1ccc(-c2nnc(SCc3ccccc3F)n2N)cc1` [IS29] the figure was 3400 ± 1100 nM.
Regarding `CC1(C)CCC(CN2CCN(c3ccc(C(=O)NS(=O)(=O)c4ccc(NCC5CCOCC5)c([N+](=O)[O-])c4)c(Oc4cnc5[nH]ccc5c4)c3)CC2)=C(c2ccc(Cl)cc2)C1` [ABT-199, venetoclax, reference compound], the “interaction with Mcl-1 (SPR)” value in experiment [2] is given as “negligible interaction”. The “PARP1 cleavage, M14” value in experiment [3] was “PARP1 cleavage”.
Turning to `CC1(C)CCC(c2ccc(Cl)cc2)=C(CN2CCN(c3ccc(C(=O)NS(=O)(=O)c4ccc(N[C@H](CCN5CCOCC5)CSc5ccccc5)c(S(=O)(=O)C(F)(F)F)c4)cc3)CC2)C1` [ABT-263, navitoclax, reference compound], the “ratio of LC3B-II on LC3B-I / LC3B-II protein level, M14” value in experiment [4] is “increased”. Further, in experiment [3], the “PARP1 cleavage, M14” value is “PARP1 cleavage”.

The record behind these values is PMC8899577, “Targeting the anti-apoptotic Bcl-2 family proteins: machine learning virtual screening and biological evaluation of new small molecules” (Theranostics, 2022).
